Measurements: patent US4250259A, “Microbiological production of ketones from C3 -C6 secondary alcohols” (priority 1979, dated 1981)

Columns and labels:
[1] = test system: purified secondary alcohol dehydrogenase; assay: substrate specificity, electron acceptor and stoichiometry of purified yeast SADH; settings: examined spectrophotometrically
[2] = test system: secondary alcohol dehydrogenase (SADH), cell-free soluble extract; assay: oxidation of sec-alcohols by cell-free soluble extracts; format: biochemical, Pseudomonas sp. CRL 75 (ATCC 21,439); settings: soluble crude extract; grown on methanol
Protocol: (§1) To prepare the cell-free secondary alcohol dehydrogenase (SADH) system, the washed cells were disrupted with a Wave Energy Ultrasonic Oscillator, Model W201 (Wave Energy System, Inc., Newtown, Pa.) and centrifuged at 20,000×g. for 30 minutes. […] The enzyme activity was measured with a fluorescence spectrophotometer (Perkin Elmer, Model MPF 44A) by following the formation of reduced NAD (EX 340 nm, Em 460 nm). The formation of reduced NAD was also followed with an absorption spectrophotometer at 340 nm. The assay system (3 ml.) contained: potassium phosphate buffer pH 7.0; 150 μmol.; NAD 1 μmol.; a given amount of enzyme preparation; and secondary alcohol 10 μmol. The reaction was started by the addition of substrate. One unit of enzyme activity represents the reduction of one μmole NAD per minute. Protein concentrations were determined by the Lowry method (J. Biol. Chem., 193: 255-275 (1951)).
(§2) The experimental procedure for the tests reported in Table VIII were as follows: 1 mg protein of crude extract was added into a 0.5 ml. 0.05 M phosphate buffer (pH 7.0) in a 10-ml. vial. […] The reaction mixture was incubated at 30° C. on a water bath. A 3 μl sample was removed with a syringe at 15 min. of incubation and was assayed with g.l.c. Catalytic activity was also assayed by fluorescence spectrophotometry.

[3] = test system: secondary alcohol dehydrogenase (SADH), cell-free soluble extract; assay: as above; format: biochemical, Methylosinus trichosporium OB3b (NRRL B-11,196); settings: soluble crude extract; grown on methanol
Protocol: as §1, §2

[4] = test system: Pseudomonas sp. ATCC 21438 (Facultative); assay: sec-alcohols to ketones by resting cell suspensions; format: cell-based
Protocol: (§3) The pH of the nutrient medium was adjusted to 7.0 by the addition of acid or base and 50 ml. samples of the nutrient medium were charged into a plurality of 300 ml. shaker flasks. The shaker flasks were inoculated with an inoculating loop of cells from an agar plate containing homogeneous colonies of the microorganisms on the plate (the purity of the isolates was confirmed by microscopic examination). The isolates had been maintained on methanol (0.4% V/V) agar plates or on agar plates under an atmosphere of methane and air having a 1:1 V/V gas ratio which had been transferred every two weeks. For growth on methanol, the medium was supplemented with 0.4% methanol. For growth on methane, the gaseous phase of the inoculated flasks was replaced with a gas mixture comprised of methane and air having a ratio of 1:1 on a V/V basis. The inoculated flasks were sealed air-tight and were incubated on a rotary shaker of orbital radius 2.5 cm. at 250 rpm and at 30° C. for two days until turbidity in the medium had developed. The cells were harvested by centrifugation at 10,000×g. at 4° C. for 30 minutes. The cell pellet was washed twice with a 0.05 M phosphate buffer at a pH of 7.0 (containing 0.02 M MgCl2). The washed cells were then suspended in a 0.05 M phosphate buffer at pH 7.0.
(§4) A 0.5 ml. sample of each washed cell suspension (2 mg. cells) was put into 10 ml. vials at 4° C. which were sealed with a rubber cap. The gaseous phase of the vials was removed with vacuum and then was replaced with a gas mixture of the substrate reactant (i.e., alkane or secondary alcohol) and oxygen at a 1:1 V/V ratio. (In the case of a liquid substrate, i.e., secondary alcohol, 10 μl of the substrate was put in the 10 ml. vials). […] Samples of product (1-3 μl) were withdrawn periodically with a microsyringe and the products were analyzed by gas chromatography (ionization flame detector column).
(§5) The procedure in Example 1 was repeated except that a plurality of methanol-utilizing methylotrophic microorganisms were each aerobically grown in a methanol-containing nutrient medium instead of a methane-containing medium. The nutrients in the medium were the same as indicated in Example 1 except that 0.4% V/V methanol was used as the alcohol dehydrogenase inducer and as the major carbon and energy source for growth. The cells were harvested and washed as described in Example 1. The resting microbial cells of the induced methanol-grown methanol-utilizing methylotrophic microorganisms were then contacted with C3 -C6 secondary alcohols in a buffered solution by the procedure of Example 1.
(§6) The procedure in Example 1 was repeated except that the methylotrophic microorganisms were each aerobically grown in an alcohol dehydrogenase-inducing growth medium containing methylamine or methyl formate as the alcohol dehydrogenase enzyme inducer and growth substrate instead of methane. The nutrients in the medium were the same as indicated in Example 1 except that 0.4% V/V of the alcohol dehydrogenase-inducer growth substrate was used as the major carbon and energy source. The cells were harvested and washed as described in Example 1. The resting microbial cells were then contacted with C3 -C6 secondary alcohols in a buffered solution by the conversion procedure of Example 1.

[5] = test system: Methanomonas methylovora ATCC 21852 (Obligate); assay: as above; format: cell-based
Protocol: as §3, §4, §5, §6

[6] = test system: Methylobacterium organophilum XX (ATCC 27886); assay: as above; format: cell-based
Protocol: as §3, §4
The procedure in Example 1 was repeated wherein a plurality of the methane-utilizing methylotrophic microorganisms were each grown aerobically in a nutrient medium containing methane as the alcohol dehydrogenase enzyme inducer and as the major carbon and energy source for growth. The cells were harvested and washed as described in Example 1. The resting microbial cells of the induced methane-grown methane-utilizing methylotrophic microorganisms were then contacted with C3 -C6 secondary alcohols in a buffered solution by the procedure of Example 1.
In this example, the procedure in Example 1 was repeated except that a plurality of methane-utilizing methylotrophic microorganisms were each aerobically grown in a methanol-containing nutrient medium instead of a methane-containing medium. The nutrients in the medium were the same as indicated in Example 1 except that 0.4% V/V methanol was used as the alcohol dehydrogenase inducer and major source of carbon and energy for growth. Following growth, the cells were harvested and washed as described in Example 1.
The resting cells of the induced methanol-grown methylotrophic microorganisms were then contacted with secondary alcohols in a buffered solution by the procedure described in Example 1.
as §6

[7] = test system: Torulopsis sp. Strain A1 (NRRLY-11,419); assay: sec-alcohols to ketones by cell suspensions of yeasts; format: cell-based
[8] = test system: Hansenula polymorpha ATCC 26012; assay: as above; format: cell-based

SMILES: CCCCC(C)O (stereo not shown) [2-Hexanol, 2-hexanol]
- oxidation by the purified yeast secondary alcohol dehydrogenase [1]: catalyzed the oxidation
- Oxidation Rate, sec-alcohol to corresponding ketone [2]: 0 nmole/min/mg protein
- Oxidation Rate, sec-alcohol to corresponding ketone [3]: 0 nmole/min/mg protein
- Conversion Rates, sec-alcohol to corresponding ketone ([4]; methanol-grown cells): 0.7 μmoles/hr/mg protein
- Conversion Rates, sec-alcohol to corresponding ketone ([4]; methyl formate-grown cells): 0.80 μmoles/hr/mg protein
- Conversion Rates, sec-alcohol to corresponding ketone ([4]; methylamine-grown cells): 0.07 μmoles/hr/mg protein
- Conversion Rates, sec-alcohol to corresponding ketone ([5]; methanol-grown cells): 1.0 μmoles/hr/mg protein
- Conversion Rates, sec-alcohol to corresponding ketone ([5]; methyl formate-grown cells): 0.60 μmoles/hr/mg protein
- Conversion Rates, sec-alcohol to corresponding ketone ([5]; methylamine-grown cells): 0.09 μmoles/hr/mg protein
- Conversion Rates, sec-alcohol to corresponding ketone ([6]; cells grown on methane): 0.12 μmoles/hr/mg protein
- Conversion Rates, sec-alcohol to corresponding ketone ([6]; cells grown on methanol): 1.1 μn moles/hr/mg protein
- Conversion Rates, sec-alcohol to corresponding ketone ([6]; methyl formate-grown cells): 0.70 μmoles/hr/mg protein
- Conversion Rate, sec-alcohol to corresponding ketone ([7]; Growth Substrate Ethanol): 0.20 μmoles/hr/mg of protein
- Conversion Rate, sec-alcohol to corresponding ketone ([7]; Growth Substrate Methanol): 0.21 μmoles/hr/mg of protein
- Conversion Rate, sec-alcohol to corresponding ketone ([7]; Growth Substrate Methylamine): 0.12 μmoles/hr/mg of protein
- Conversion Rate, sec-alcohol to corresponding ketone ([7]; Growth Substrate Methylformate): 0.25 μmoles/hr/mg of protein
- Conversion Rate, sec-alcohol to corresponding ketone ([7]; Growth Substrate Propylamine): 0.10 μmoles/hr/mg of protein
- Conversion Rate, sec-alcohol to corresponding ketone ([8]; Growth Substrate Ethanol): 0.54 μmoles/hr/mg of protein
- Conversion Rate, sec-alcohol to corresponding ketone ([8]; Growth Substrate Methanol): 0.72 μmoles/hr/mg of protein
- Conversion Rate, sec-alcohol to corresponding ketone ([8]; Growth Substrate Methylamine): 0.62 μmoles/hr/mg of protein
- Conversion Rate, sec-alcohol to corresponding ketone ([8]; Growth Substrate Methylformate): 0.70 μmoles/hr/mg of protein
- Conversion Rate, sec-alcohol to corresponding ketone ([8]; Growth Substrate Propylamine): 0.48 μmoles/hr/mg of protein
